Where “and” joins values, the source holds several entries; their conditions need not be identical. Equal values may be shown once. Toxic doses and inconclusive results are not listed.
Tested on: P388 leukemia ip, CD2F1 mice, survival T/C
Test: NCI In Vivo Anticancer Drug Screen. Data for tumor model P388 Leukemia (intraperitoneal) in CD2F1 (CDF1) mice
Conditions: endpoint: median survival time, higher = longer survival
How it was run: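 Mice carrying the transplanted tumor received test compound or vehicle. Survival was recorded in each group, and the value is the treated-group measurement divided by that of the vehicle-treated control group.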

[1] = dose: 100.0 mg/kg/injection, schedule: Q01DX009 (ip), vehicle: saline
[2] = dose: 12.5 mg/kg/injection, schedule: Q01DX009 (ip), vehicle: saline with Tween-80
[3] = dose: 25.0 mg/kg/injection, schedule: Q01DX009 (ip), vehicle: saline with Tween-80
[4] = dose: 50.0 mg/kg/injection, schedule: Q01DX009 (ip), vehicle: saline with Tween-80
[5] = dose: 100.0 mg/kg/injection, schedule: Q04DX003 (ip), vehicle: saline with Tween-80

For `COc1c2c(nc3ccccc13)-c1cc3c(c(=O)n1C2)COC(=O)C3(O)CC(=O)N1CCOCC1` (stereo not drawn), the T/C (dose: 12.5 mg/kg/injection, schedule: Q01DX009 (ip), vehicle: saline) was 150 % of control, the T/C (dose: 50.0 mg/kg/injection, schedule: Q01DX009 (ip), vehicle: saline) was 160 % of control and the T/C [1] was 161 % of control. The T/C (dose: 100.0 mg/kg/injection, schedule: Q01DX009 (ip), vehicle: suspension in saline) was 169 % of control and the T/C (dose: 200.0 mg/kg/injection, schedule: Q01DX009 (ip), vehicle: suspension in saline) was 104 % of control.

`N#CC1(c2ccccc2)OC1(C#N)c1ccccc1` (stereo not drawn) was tested, and the T/C [2] was 96 % of control, the T/C [3] was 101 % of control and the T/C (dose: 37.5 mg/kg/injection, schedule: Q01DX009 (ip), vehicle: acetone) was 96 % of control. For the same compound, the T/C [4] was 93 % of control, the T/C (dose: 75.0 mg/kg/injection, schedule: Q01DX009 (ip), vehicle: acetone) was 95 % of control and the T/C (dose: 150.0 mg/kg/injection, schedule: Q01DX009 (ip), vehicle: acetone) was 113 % of control.

In the case of `CNC(=S)N/N=C(\C)c1ccccn1`, the T/C [2] is reported as 107 % of control and 117 % of control and the T/C [3] is reported as 116 % of control.

With `Cc1cn2ccccc2c1-c1ccccc1` the T/C (dose: 50.0 mg/kg/injection, schedule: Q01DX005 (ip), vehicle: saline with Tween-80) was 111 % of control, the T/C (dose: 100.0 mg/kg/injection, schedule: Q01DX005 (ip), vehicle: saline with Tween-80) was 108 % of control and the T/C (dose: 200.0 mg/kg/injection, schedule: Q01DX005 (ip), vehicle: saline with Tween-80) was 106 % of control.

For `Cc1c2cnccc2c(C)c2c1c1ccccc1n2Cc1ccccc1`, the T/C (dose: 6.25 mg/kg/injection, schedule: Q04DX003 (ip), vehicle: distilled water + Tween-80) was 97 % of control, the T/C (dose: 12.5 mg/kg/injection, schedule: Q04DX003 (ip), vehicle: distilled water + Tween-80) was 95 % of control and the T/C (dose: 25.0 mg/kg/injection, schedule: Q04DX003 (ip), vehicle: distilled water + Tween-80) was 95 % of control. For the same compound, the T/C (dose: 50.0 mg/kg/injection, schedule: Q04DX003 (ip), vehicle: distilled water + Tween-80) was 95 % of control, the T/C (dose: 100.0 mg/kg/injection, schedule: Q04DX003 (ip), vehicle: distilled water + Tween-80) was 99 % of control and the T/C (dose: 200.0 mg/kg/injection, schedule: Q04DX003 (ip), vehicle: distilled water + Tween-80) was 94 % of control.

For `Cn1c(C2CCC(=O)N2Cc2ccccc2)n[nH]c1=S` (stereo not drawn), the T/C (dose: 60.0 mg/kg/injection, schedule: Q01DX005 (ip), vehicle: saline with Tween-80) was 101 % of control, the T/C (dose: 120.0 mg/kg/injection, schedule: Q01DX005 (ip), vehicle: saline with Tween-80) was 101 % of control and the T/C (dose: 240.0 mg/kg/injection, schedule: Q01DX005 (ip), vehicle: saline with Tween-80) was 100 % of control.

In the case of `CCN(CCN1C(=O)C2CCCCC2C1=O)c1ccc(N=O)c(C)c1` (stereo not drawn), the T/C [5] is reported as 106 % of control, the T/C (dose: 200.0 mg/kg/injection, schedule: Q04DX003 (ip), vehicle: saline with Tween-80) is reported as 109 % of control and the T/C (dose: 400.0 mg/kg/injection, schedule: Q04DX003 (ip), vehicle: saline with Tween-80) is reported as 112 % of control.

For `FC(F)(F)c1ccc2c3c(c4c(c2n1)OCN(Cc1ccc(Cl)cc1Cl)C4)CN(Cc1ccc(Cl)cc1Cl)CO3`, the T/C (dose: 100.0 mg/kg/injection, schedule: Q01DX001 (ip), vehicle: other) was 93 % of control, the T/C (dose: 200.0 mg/kg/injection, schedule: Q01DX001 (ip), vehicle: other) was 93 % of control and the T/C (dose: 400.0 mg/kg/injection, schedule: Q01DX001 (ip), vehicle: other) was 100 % of control.

With `O=C(O)C1=C(O)CCN=C1` the T/C (dose: 12.5 mg/kg/injection, schedule: Q01DX005 (ip), vehicle: Klucel (hydroxypropylcellulose) (HPC)) was 99 % of control, the T/C (dose: 25.0 mg/kg/injection, schedule: Q01DX005 (ip), vehicle: Klucel (hydroxypropylcellulose) (HPC)) was 99 % of control and the T/C (dose: 50.0 mg/kg/injection, schedule: Q01DX005 (ip), vehicle: Klucel (hydroxypropylcellulose) (HPC)) was 105 % of control.

`Nc1ccn(C2OC(CCl)C(O)C2O)c(=O)n1` (stereo not drawn) was tested, and the T/C (dose: 6.25 mg/kg/injection, schedule: Q01DX009 (ip), vehicle: Klucel (hydroxypropylcellulose) (HPC)) was 101 % of control, the T/C (dose: 12.5 mg/kg/injection, schedule: Q01DX009 (ip), vehicle: Klucel (hydroxypropylcellulose) (HPC)) was 106 % of control and the T/C (dose: 100.0 mg/kg/injection, schedule: Q01DX009 (ip), vehicle: Klucel (hydroxypropylcellulose) (HPC)) was 172 % of control. The T/C [1] was 154 % of control, the T/C (dose: 200.0 mg/kg/injection, schedule: Q01DX009 (ip), vehicle: Klucel (hydroxypropylcellulose) (HPC)) was 186 % of control and the T/C (dose: 200.0 mg/kg/injection, schedule: Q01DX009 (ip), vehicle: saline) was 164 % of control. The T/C (dose: 400.0 mg/kg/injection, schedule: Q01DX009 (ip), vehicle: saline) was 177 % of control.

For `O=C1OCC(c2ccno2)=C1O`, the T/C (dose: 60.0 mg/kg/injection, schedule: Q01DX005 (ip), vehicle: Klucel (hydroxypropylcellulose) (HPC)) was 100 % of control, the T/C (dose: 120.0 mg/kg/injection, schedule: Q01DX005 (ip), vehicle: Klucel (hydroxypropylcellulose) (HPC)) was 100 % of control and the T/C (dose: 240.0 mg/kg/injection, schedule: Q01DX005 (ip), vehicle: Klucel (hydroxypropylcellulose) (HPC)) was 104 % of control.

`CN1CCN(CCCN2c3ccccc3Sc3ccc(C(F)(F)F)cc32)CC1` was tested, and the T/C [3] was 109 % of control, the T/C [4] was 118 % of control and the T/C (dose: 66.0 mg/kg/injection, schedule: Q04DX003 (ip), vehicle: saline with Tween-80) was 163 % of control. For the same compound, the T/C [5] was 150 % of control.

Reference: PubChem BioAssay AID330 (DTP/NCI, 2004)
